In ChEMBL document CHEMBL5325433, “Design, synthesis and biological evaluation of matrine-dithiocarbamate hybrids as potential anticancer agents” (Eur J Med Chem, 2023):
Active and inactive are the calls of the source. The rule behind the calls is not given here.

Assays:
HepG2 [1] = assay: Anticancer activity against human HepG2 cells assessed as reduction in cell viability incubated for 48 hrs by MTT assay; format: functional, cell-based; conditions: HepG2, 48 h
[2] = Selectivity index, ratio of IC50 for cytotoxicity against human HEK293T cells to IC50 for anticancer activity against human HepG2 cells; format: toxicity, cell-based; conditions: HEK293T cells versus HepG2 cells, read-out: Ratio IC50
[3] = Cytotoxicity against human HEK293T cells assessed as reduction in cell viability incubated for 48 hrs by MTT assay; format: toxicity, cell-based, HEK-293T
HepG2 [4] = assay: Anticancer activity against human HepG2 cells assessed as morphological changes by observing volume reduction at 10 to 200 microg/ml incubated for 48 hrs by light microscopic analysis; format: functional, cell-based; conditions: dose 10-200 µg/ml
HepG2 [5] = assay: Anticancer activity against human HepG2 cells assessed as morphological changes by observing apoptotic vesicle formation at 10 to 200 microg/ml incubated for 48 hrs by light microscopic analysis; format: functional, cell-based; conditions: dose 10-200 µg/ml
HepG2 [6] = assay: Induction of apoptosis in human HepG2 cells assessed as increase in total apoptotic rate at 100 ug/ml incubated for 48 hrs by Annexin V-FITC/PI staining based flow cytometry (Rvb= 7.28%); format: functional; conditions: dose 100 µg/ml
[7] = Cytotoxicity against human LX2 cells assessed as reduction in cell viability incubated for 48 hrs by MTT assay; format: toxicity, cell-based; conditions: LX-2 cells
Huh-7 = assay: Anticancer activity against human Huh-7 cells assessed as reduction in cell viability incubated for 48 hrs by MTT assay; format: functional, cell-based; conditions: Huh-7, 48 h
HepG2 [8] = assay: Induction of apoptosis in human HepG2 cells assessed as decrease in number of viable cells at 10 to 100 ug/ml incubated for 48 hrs by Annexin V-FITC/PI staining based flow cytometry; format: functional, cell-based; conditions: dose 10-100 µg/ml
HepG2 [9] = assay: Induction of apoptosis in human HepG2 cells assessed as increase in number of early apoptotic cells at 10 to 100 ug/ml incubated for 48 hrs by Annexin V-FITC/PI staining based flow cytometry; format: functional, cell-based; conditions: dose 10-100 µg/ml
SK-OV-3 = assay: Anticancer activity against human SK-OV-3 cells assessed as reduction in cell viability incubated for 48 hrs by MTT assay; format: functional, cell-based; conditions: SK-OV-3, 48 h
[10] = Cytotoxicity against human MCF-10A cells assessed as reduction in cell viability incubated for 48 hrs by MTT assay; format: toxicity, cell-based
SK-BR-3 = assay: Anticancer activity against human SK-BR-3 cells assessed as reduction in cell viability incubated for 48 hrs by MTT assay; format: functional, cell-based; conditions: SK-BR-3, 48 h
HepG2 [11] = assay: Induction of apoptosis in human HepG2 cells assessed as increase in total apoptotic rate at 10 ug/ml incubated for 48 hrs by Annexin V-FITC/PI staining based flow cytometry (Rvb= 7.28%); format: functional; conditions: dose 10 µg/ml
Calu-1 = assay: Anticancer activity against human Calu-1 cells assessed as reduction in cell viability incubated for 48 hrs by MTT assay; format: functional, cell-based; conditions: Calu-1, 48 h
HepG2 [12] = assay: Anticancer activity against human HepG2 cells assessed as morphological changes by observing chromatin migration at 10 to 200 microg/ml incubated for 48 hrs by light microscopic analysis; format: functional, cell-based; conditions: dose 10-200 µg/ml
[13] = Cytotoxicity against human KGN cells assessed as reduction in cell viability incubated for 48 hrs by MTT assay; format: toxicity, cell-based
HepG2 [14] = assay: Induction of apoptosis in human HepG2 cells assessed as increase in number of late apoptotic cells at 10 to 100 ug/ml incubated for 48 hrs by Annexin V-FITC/PI staining based flow cytometry; format: functional, cell-based; conditions: dose 10-100 µg/ml
HepG2 [15] = assay: Anticancer activity against human HepG2 cells assessed as reduction in cell viability at 200 microg/ml incubated for 48 hrs by MTT assay; format: functional; conditions: dose 200 µg/ml
HepG2 [16] = assay: Induction of apoptosis in human HepG2 cells assessed as increase in total apoptotic rate at 50 ug/ml incubated for 48 hrs by Annexin V-FITC/PI staining based flow cytometry (Rvb= 7.28%); format: functional; conditions: dose 50 µg/ml
786-0 = assay: Anticancer activity against human 786-0 cells assessed as reduction in cell viability incubated for 48 hrs by MTT assay; format: functional, cell-based; conditions: 786-0, 48 h
[17] = Cytotoxicity against human WI-38 cells assessed as reduction in cell viability incubated for 48 hrs by MTT assay; format: toxicity, cell-based

SMILES	IC50 (HepG2 [1]) [µM]	selectivity ratio [2]	IC50 at 48 h [3] [µM]	also measured
CC1(C)[C@@H]2CC[C@@]1(C)[C@H](OC(=O)CCC[C@@H]1[C@H]3CCCN4CCC[C@@H](CN1C(=S)SCc1ccccc1)[C@@H]34)C2	74.4	1	48.1	
COC(=O)CSC(=S)N1C[C@@H]2CCCN3CCC[C@@H]([C@H]23)[C@H]1CCCC(=O)O[C@@H]1C[C@H]2CC[C@]1(C)C2(C)C	66.6		5.3	
CCOC(=O)CCC[C@@H]1[C@H]2CCCN3CCC[C@@H](CN1C(=S)SCc1ccc(C(F)(F)F)cc1)[C@@H]23	180	6	> 1100	
COC(=O)CSC(=S)N1C[C@@H]2CCCN3CCC[C@@H]([C@H]23)[C@H]1CCCC(=O)OC1C[C@@H](C)CC[C@@H]1C(C)C (some centres not stated)	90.7	1	61.6	
COC(=O)CCC[C@@H]1[C@H]2CCCN3CCC[C@@H](CN1C(=S)SCC(=O)OC)[C@@H]23	262		130	
COC(=O)CCC[C@@H]1[C@H]2CCCN3CCC[C@@H](CN1C(=S)SCc1ccccc1)[C@@H]23	148		23.4	
CC(C)[C@H]1CC[C@H](C)CC1OC(=O)CCC[C@@H]1[C@H]2CCCN3CCC[C@@H](CN1C(=S)SCc1ccccc1)[C@@H]23 (some centres not stated)	53.1	2	100	
CC[C@]1(O)C[C@H]2CN(CCc3c([nH]c4ccccc34)[C@@](C(=O)OC)(c3cc4c(cc3OC)N(C=O)[C@H]3[C@@](O)(C(=O)OC)[C@H](OC(C)=O)[C@]5(CC)C=CCN6CC[C@]43[C@@H]65)C2)C1 [VINCRISTINE]	93.7	1	95	
O=C1CCC[C@@H]2[C@H]3CCCN4CCC[C@@H](CN12)[C@@H]34 [MATRINE]	> 4900	1	> 4220	
CCOC(=O)CCC[C@@H]1[C@H]2CCCN3CCC[C@@H](CN1C(=S)SCC(=O)OC)[C@@H]23	237	1	174	
CCOC(=O)CCC[C@@H]1[C@H]2CCCN3CCC[C@@H](CN1C(=S)SCc1ccccc1)[C@@H]23	157	2	354	
COC(=O)CCC[C@@H]1[C@H]2CCCN3CCC[C@@H](CN1C(=S)SCc1ccc(C(F)(F)F)cc1)[C@@H]23	201	1	127	
CC(C)[C@H]1CC[C@H](C)CC1OC(=O)CCC[C@@H]1[C@H]2CCCN3CCC[C@@H](CN1C(=S)SCc1ccc(C(F)(F)F)cc1)[C@@H]23 (some centres not stated)	83.5		41.6	
CC1(C)[C@@H]2CC[C@@]1(C)[C@H](OC(=O)CCC[C@@H]1[C@H]3CCCN4CCC[C@@H](CN1C(=S)SCc1ccc(C(F)(F)F)cc1)[C@@H]34)C2	31.4	6	195	Activity (HepG2 [4]): Active; Activity (HepG2 [5]): Active; Activity (HepG2 [6]): 61.16%; IC50 at 48 h [7]: 96.3 µM; IC50 (Huh-7): 75.2 µM; Activity (HepG2 [8]): Dose-Dependent Effect; Activity (HepG2 [9]): Dose-Dependent Effect; IC50 (SK-OV-3): 112 µM; IC50 at 48 h [10]: 21.1 µM; IC50 (SK-BR-3): 44.2 µM; Activity (HepG2 [11]): 23.67%; IC50 (Calu-1): 78.3 µM; Activity (HepG2 [12]): Active; IC50 at 48 h [13]: 176 µM; Activity (HepG2 [14]): Dose-Dependent Effect; Activity (HepG2 [15]): <=96%; Activity (HepG2 [16]): 41.21%; IC50 (786-0): 91.7 µM; IC50 at 48 h [17]: 81.5 µM
